Results taken from a melting point compilation (Tetko et al.; mined from patent text by program, amines drawn as free bases though some values may be those of a salt).

Row | Compound | melting point
1 | CC(=O)NC[C@H]1CN(c2ccc(C3=CN(C(=O)CO)CCC3)c(F)c2)C(=O)O1 | 171 to 173 °C
2 | Cc1cc(-c2cc3cc(OCCNC[C@H](O)c4cccc(C(F)(F)F)c4)ccc3o2)no1 | 126 to 127 °C
3 | COC(=O)C1=C(CF)NC(C)=C(C(=O)OC2CCCC2)C1c1cccc([N+](=O)[O-])c1C (stereo unspecified) | 167 to 168 °C
4 | CCOC(=O)C1=C(N)NC(N)=C(C(=O)OCC)C1c1cc([N+](=O)[O-])ccc1Cl | 130 °C
5 | CCCC(=O)NN=C(C)c1ccncc1Cl | 104 °C
6 | CC(C)(C)C(=O)Oc1ccc(-c2nnn(Cc3ccccc3)n2)cc1 | 131 to 134 °C
7 | CC(=O)NCCC(C)c1ccc(-c2ccc(Cl)cc2)cc1 (stereo unspecified) | 118 to 120 °C
8 | Nc1c(F)c(N2CC(O)C2)c(F)c2c1c(=O)c(C(=O)O)cn2C1CC1 | 271 to 275 °C
9 | CC(=O)NCCn1nnnc1Sc1ccc([N+](=O)[O-])cc1[N+](=O)[O-] | 197 to 198 °C
10 | C=C(C)C(=O)Nc1cccc(OC(=O)NC(C)(C)CC(C)(C)C)c1 | 118 to 120 °C
11 | COc1ccc(C2CNC(=O)O2)cc1OC1CCCC1 (stereo unspecified) | 111 to 112 °C
12 | Cc1ccnc2c1nc(COc1ccc(CC3SC(=O)NC3=O)cc1)n2C (stereo unspecified) | 205 to 207 °C
13 | O=C(O)c1ccc(OC(F)(F)F)c(Cl)c1Cl | 123 to 126 °C
14 | Cc1nc(N)nc(N)c1C12CC3CC(CC(C3)C1)C2 | 254 to 258 °C
15 | Cn1cc2c3c(ccc2n1)CCC3=O | 162 to 164 °C
16 | O=C1Cc2cc(C3=NNC(=O)C4CC34)ccc2N1 (stereo unspecified) | 305 to 307 °C
17 | COc1cccc2c1OCN(CCc1ccc(Cl)cc1)C2 | 87 to 88 °C
18 | CC(=O)OC1CCc2cc(N(C(C)=O)S(C)(=O)=O)c(Oc3ccccc3)cc21 (stereo unspecified) | 70 °C
19 | CCCCCS(=O)(=O)NC(=O)CCc1ccc(OCC(=O)N(CC)CC)cc1Oc1ncc(C(F)(F)F)cc1Cl | 111 to 113 °C
20 | c1ccc(-c2ccc(Nc3ncc(-c4ccccc4)s3)nc2)cc1 | 231 to 233 °C
21 | O=C(O)c1cc(-c2cccc(C(F)(F)F)c2)nc(C(F)(F)F)c1 | 185 to 186 °C
22 | CCCCC1(CCCC)NC(c2nc(-c3ccncc3)c[nH]2)Cc2c1[nH]c1ccccc21 (stereo unspecified) | 200 to 205 °C
23 | Cc1cc(CCCCCOc2ccc(C3NCCS3)cc2)on1 (stereo unspecified) | 82 to 84 °C
24 | CC(CS(=O)(=O)c1ccccc1)C1CC=C2C3=C(CCC21C)C1(C)CCC(OC(=O)c2ccccc2)C(C)(C)C1CC3 (stereo unspecified) | 175 to 188 °C
25 | C=CCc1cccc2c(=O)cc(-c3c(F)cccc3F)oc12 | 84 to 86 °C
26 | COC(=O)CCC(=O)c1ccc2c(c1)C(C)NC(=O)N2 (stereo unspecified) | 142 to 150 °C

Row | Compound | melting point
27 | CC[C@H](C)CCCCCOc1ccc(C(=O)Oc2ccc(O)cc2)cc1 | 75 °C
28 | CC[Si](C)(C)NC(=O)c1ccc(N)cc1 | 126 to 127 °C
29 | O=C(O)C(Oc1ccc(Cl)cc1)c1ccc(Oc2ccc(Cl)cc2)cc1 (stereo unspecified) | 141 to 142 °C
30 | CC1(CC(=O)O)OCCC2=C1Cc1ccccc12 (stereo unspecified) | 179 to 180 °C
31 | O=Cc1c(Cl)nc2ccc(Cl)cn12 | 165 to 166 °C
32 | Clc1ccc2oc(CBr)cc2c1 | 70 °C
33 | CC(=O)Nc1ccc(OC(=O)C2CCc3c(c4ccccc4n3C(=O)c3ccccc3)C2)cc1 (stereo unspecified) | 166 to 168 °C
34 | O=C1C(=O)N(CCCCl)c2ccccc21 | 72 to 76.5 °C
35 | CCCNCCc1cccc(NS(=O)(=O)c2cccc(Cl)c2)c1 | 145 to 148 °C
36 | CS(=O)(=O)c1ccc(/C(=C(\CCO[N+](=O)[O-])C(=O)O)c2ccc(Cl)cc2)cc1 | 143 to 144 °C
37 | COc1cc(OCc2ccncc2)ccc1/C=C/c1cc(/C=C/c2ccc3cc[nH]c3c2)n[nH]1 | 103 to 118 °C
38 | CC(=O)NCCC1CCc2ccn3ncc(C)c3c21 (stereo unspecified) | 121 to 122 °C
39 | COC(=O)c1cccc(/C=C/C(=O)Nc2ccccc2NC(=O)OC(C)(C)C)c1 | 79 to 82.4 °C
40 | CCc1ccc(C2CCC(c3ccc(O)cc3)(c3ccc(O)cc3)CC2)cc1 | 187 to 188 °C
41 | CN(C)Cc1nnc(CO)n1-c1ccc(Cl)cc1C(=O)c1ccccc1Cl | 138 to 141 °C
42 | Cc1nc(C2CC2)nc(C)c1N1CCCn2c1nc1c(Cl)ccc(C(OC(F)F)C(F)(F)F)c12 (stereo unspecified) | 191 to 193 °C
43 | Cc1ccccc1N1CCN(CCn2c(=O)[nH]c3sccc3c2=O)CC1 | 191 to 193 °C
44 | Cc1nccn1-c1ccc(COc2cccc(C3(C#N)CCOCC3)c2)cc1 | 153 to 154 °C
45 | OCCc1nccn1CCCc1ccc(OCc2coc(/C=C/c3c(F)cccc3F)n2)cc1 | 106 to 107 °C
46 | CCCCCCc1c(Cl)nc(NC=O)nc1Cl | 80 to 81 °C
47 | O=S(Cc1[nH]c2ccccc2c1Sc1ccccc1)c1ccccc1 (stereo unspecified) | 71 to 74 °C
48 | COc1ccc(C(=O)Nc2ccc(-c3ccc(C=O)cc3C)c(C)c2)cc1CCCN(C)C | 63 to 66 °C
49 | C#Cc1c(-c2ccc(F)cc2)cc(C(c2ccccc2)c2ccccc2)nc1C(C)C | 106 to 108 °C
50 | CCCc1nc2cc(C(=O)c3ccccc3)ccc2[nH]1 | 131 to 132 °C
51 | CCCCCC(=O)Oc1ccc(-c2ccc(C#N)cc2)cc1 | 56.1 °C
